Reference: article PMC10799935, “Discovery of a peripheral 5HT2A antagonist as a clinical candidate for metabolic dysfunction-associated steatohepatitis” (Nature Communications, 2024)
Where “and” joins values, the source holds several entries; their conditions need not be identical. Identical values can stand only once.

Assays:
in vitro = details: mouse, plasma
HFD-fed C57BL/6J mice = experiment: DIO mice: intraperitoneal glucose tolerance test (IPGTT); type: in vivo, mouse; set-up: Mean Diff. (Vehicle vs. 11c), GTT blood glucose / Mean 2 (11c group), GTT blood glucose: unit not given here; details: for Mean Diff. (Vehicle vs. 11c), GTT blood glucose: Dunnett's multiple comparisons test; for Significant? (Vehicle vs. 11c), GTT blood glucose: Dunnett's test, alpha 0.05; for Mean 2 (11c group), GTT blood glucose: test details, mixed-effects model; for Blood Glucose Level 0 min / Blood Glucose Level 15 min / Blood Glucose Level 30 min / Blood Glucose Level 60 min: GTT, PO
Experimental: For the glucose tolerance test, overnight fasted mice were intraperitoneally injected with 2 g/kg D-glucose (Sigma-Aldrich). Glucose concentrations were measured using a Gluco DR. TOP glucometer (Allmedicus). The AUC (area under the curve) during the GTT was calculated using GraphPad Prism 8.0 software (La Jolla, CA, USA) by the trapezoidal method.

Question: For Cc1nc2n(c(=O)c1CCN1CCC(=C3c4ccc(Cl)cc4CCc4cccnc43)CC1)CCCC2O (centres unmarked) [Compound 11c], which remaining at 4 h (in vitro) is on record?
Answer: Its remaining at 4 h is > 99.9%.

Question: What about the “Mean Diff. (Vehicle vs. 11c), GTT blood glucose” value (shortened to “Mean Diff. (Vehicle vs. 11c)”) (HFD-fed C57BL/6J mice; 5mpk, 0 min) of the same compound?
Answer: Its value is 17.89.

Question: And the “Significant? (Vehicle vs. 11c), GTT blood glucose” value (“Significant? (Vehicle vs. 11c)” below) (HFD-fed C57BL/6J mice; 5mpk, 0 min)?
Answer: Its value is “No”.

Question: What about the “Mean 2 (11c group), GTT blood glucose” value (HFD-fed C57BL/6J mice; 5mpk, 0 min) of the same compound?
Answer: The value was 206.4.

Question: And the “Mean Diff. (Vehicle vs. 11c)” value (HFD-fed C57BL/6J mice; 5mpk, 15 min)?
Answer: The value was -1.429.

Question: And the “Significant? (Vehicle vs. 11c)” value (HFD-fed C57BL/6J mice; 5mpk, 15 min)?
Answer: Its value is “No”.

Question: And the “Mean 2 (11c group), GTT blood glucose” value (HFD-fed C57BL/6J mice; 5mpk, 15 min)?
Answer: The value was 542.4.

Question: And the “Mean Diff. (Vehicle vs. 11c)” value (HFD-fed C57BL/6J mice; 5mpk, 30 min)?
Answer: Its value is 41.17.

Question: What about the “Significant? (Vehicle vs. 11c)” value (HFD-fed C57BL/6J mice; 5mpk, 30 min) of the same compound?
Answer: The value was “No”.

Question: What about the “Mean 2 (11c group), GTT blood glucose” value (HFD-fed C57BL/6J mice; 5mpk, 30 min) of the same compound?
Answer: The value was 575.

Question: What about the “Mean Diff. (Vehicle vs. 11c)” value (HFD-fed C57BL/6J mice; 5mpk, 60 min) of the same compound?
Answer: Its value is 150.

Question: What about the “Significant? (Vehicle vs. 11c)” value (HFD-fed C57BL/6J mice; 5mpk, 60 min) of the same compound?
Answer: The value was “Yes”.

Question: And the “Mean 2 (11c group), GTT blood glucose” value (HFD-fed C57BL/6J mice; 5mpk, 60 min)?
Answer: Its value is 473.2.

Question: What about the “Mean Diff. (Vehicle vs. 11c)” value (HFD-fed C57BL/6J mice; 5mpk, 90 min) of the same compound?
Answer: Its value is 176.5.

Question: What about the “Significant? (Vehicle vs. 11c)” value (HFD-fed C57BL/6J mice; 5mpk, 90 min) of the same compound?
Answer: The value was “Yes”.

Question: And the “Mean 2 (11c group), GTT blood glucose” value (HFD-fed C57BL/6J mice; 5mpk, 90 min)?
Answer: Its value is 359.1.

Question: And the “Mean Diff. (Vehicle vs. 11c)” value (HFD-fed C57BL/6J mice; 5mpk, 120 min)?
Answer: The value was 168.6.

Question: And the “Significant? (Vehicle vs. 11c)” value (HFD-fed C57BL/6J mice; 5mpk, 120 min)?
Answer: Its value is “Yes”.

Question: What about the “Mean 2 (11c group), GTT blood glucose” value (HFD-fed C57BL/6J mice; 5mpk, 120 min) of the same compound?
Answer: The value was 270.4.

Question: And the Glucose tolerance (HFD-fed C57BL/6J mice; 5 or 10 mpk, DIO mice)?
Answer: Its Glucose tolerance is “improved”.

Question: And the “Mean Diff. (Vehicle vs. 11c)” value (HFD-fed C57BL/6J mice; 10mpk, 0 min)?
Answer: The value was 40.33.

Question: And the “Significant? (Vehicle vs. 11c)” value (HFD-fed C57BL/6J mice; 10mpk, 0 min)?
Answer: The value was “No”.

Question: And the “Mean 2 (11c group), GTT blood glucose” value (HFD-fed C57BL/6J mice; 10mpk, 0 min)?
Answer: Its value is 183.9.

Question: And the “Mean Diff. (Vehicle vs. 11c)” value (HFD-fed C57BL/6J mice; 10mpk, 15 min)?
Answer: Its value is 13.5.

Question: What about the “Significant? (Vehicle vs. 11c)” value (HFD-fed C57BL/6J mice; 10mpk, 15 min) of the same compound?
Answer: Its value is “No”.

Question: What about the “Mean 2 (11c group), GTT blood glucose” value (HFD-fed C57BL/6J mice; 10mpk, 15 min) of the same compound?
Answer: The value was 527.5.

Question: What about the “Mean Diff. (Vehicle vs. 11c)” value (HFD-fed C57BL/6J mice; 10mpk, 30 min) of the same compound?
Answer: The value was 33.08.

Question: And the “Significant? (Vehicle vs. 11c)” value (HFD-fed C57BL/6J mice; 10mpk, 30 min)?
Answer: The value was “No”.

Question: What about the “Mean Diff. (Vehicle vs. 11c)” value (HFD-fed C57BL/6J mice; 10mpk, 60 min) of the same compound?
Answer: Its value is 136.4.

Question: And the “Significant? (Vehicle vs. 11c)” value (HFD-fed C57BL/6J mice; 10mpk, 60 min)?
Answer: Its value is “No”.

Question: What about the “Mean 2 (11c group), GTT blood glucose” value (HFD-fed C57BL/6J mice; 10mpk, 60 min) of the same compound?
Answer: Its value is 486.8.

Question: And the “Mean Diff. (Vehicle vs. 11c)” value (HFD-fed C57BL/6J mice; 10mpk, 90 min)?
Answer: The value was 180.6.

Question: What about the “Significant? (Vehicle vs. 11c)” value (HFD-fed C57BL/6J mice; 10mpk, 90 min) of the same compound?
Answer: The value was “Yes”.

Question: What about the “Mean Diff. (Vehicle vs. 11c)” value (HFD-fed C57BL/6J mice; 10mpk, 120 min) of the same compound?
Answer: The value was 191.3.

Question: And the “Significant? (Vehicle vs. 11c)” value (HFD-fed C57BL/6J mice; 10mpk, 120 min)?
Answer: The value was “Yes”.

Question: What about the “Mean 2 (11c group), GTT blood glucose” value (HFD-fed C57BL/6J mice; 10mpk, 120 min) of the same compound?
Answer: Its value is 247.7.

Question: What about the “Blood Glucose Level 0 min” value (HFD-fed C57BL/6J mice; DIO mice, 5mpk, 0 min, group mean) of the same compound?
Answer: The value was 206.4 mg/dL.

Question: What about the “Blood Glucose Level 0 min” value (HFD-fed C57BL/6J mice; DIO mice, 5mpk, 0 min, individual animals, 5 mg/kg) of the same compound?
Answer: The value was 241.0 mg/dL and 220.5 mg/dL and 182.0 mg/dL and 211.0 mg/dL and 157.0 mg/dL and 205.0 mg/dL and 228.0 mg/dL.

Question: And the “Blood Glucose Level 15 min” value (HFD-fed C57BL/6J mice; DIO mice, 5mpk, 15 min, group mean)?
Answer: The value was 542.4 mg/dL.

Question: And the “Blood Glucose Level 15 min” value (HFD-fed C57BL/6J mice; DIO mice, 5mpk, 15 min, individual animals, 5 mg/kg)?
Answer: The value was 629.0 mg/dL and 541.0 mg/dL and 509.0 mg/dL and 553.5 mg/dL and 596.5 mg/dL and 427.0 mg/dL.

Question: And the “Blood Glucose Level 30 min” value (HFD-fed C57BL/6J mice; DIO mice, 5mpk, 30 min, group mean)?
Answer: The value was 575.0 mg/dL.

Question: And the “Blood Glucose Level 30 min” value (HFD-fed C57BL/6J mice; DIO mice, 5mpk, 30 min, individual animals, 5 mg/kg)?
Answer: Its value is 662.5 mg/dL and 628.5 mg/dL and 650.5 mg/dL and 617.5 mg/dL and 539.5 mg/dL and 470.5 mg/dL and 456.0 mg/dL.

Question: And the “Blood Glucose Level 60 min” value (HFD-fed C57BL/6J mice; DIO mice, 5mpk, 60 min, group mean)?
Answer: The value was 473.2 mg/dL.

Question: What about the “Blood Glucose Level 60 min” value (HFD-fed C57BL/6J mice; DIO mice, 5mpk, 60 min, individual animals, 5 mg/kg) of the same compound?
Answer: The value was 526.0 mg/dL and 500.0 mg/dL and 631.5 mg/dL and 438.0 mg/dL and 309.5 mg/dL and 481.5 mg/dL and 426.0 mg/dL.
